Legend:
[1] = Oxygen radical absorbance capacity assay (ORAC); format: biochemical; conditions: tested both individually and in solution
Procedure: Azo-initiators are considered to produce the peroxyl radical by heating, which damages the fluorescent molecule, resulting in the loss of fluorescence. Antioxidants are considered to protect the fluorescent molecule from the oxidative degeneration. By quantifying the decay of fluorescence using a fluorometer, the degree of protection is determined comparing with a standard control antioxidant Trolox. […] Equipment that can automatically measure and calculate the capacity is commercially available, such as the VarioSkan flash microplate reader from Thermo Scientific. To test samples by using ORAC, compounds are dissolved into water-based NaH2PO4 buffer.

Solubility in water = format: physicochemical

| Structure (SMILES) | influence of hydrotrope on the capacity of antioxidant compounds [1] | solubility in water (Solubility in water) |
| --- | --- | --- |
| Cn1c(=O)c2c(ncn2C)n(C)c1=O [caffeine] | no influence |  |
| NC(=O)c1cccnc1 [nicotinamide] | no influence |  |
| O=C(O)[C@H]1O[C@@H](Oc2cc3oc(-c4ccccc4)cc(=O)c3c(O)c2O)[C@H](O)[C@@H](O)[C@@H]1O [baicalin] |  | very low |
